Test results published in ChEMBL document CHEMBL1201862, “PubChem BioAssay data set” (2004).
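Exposure lasted 48 hours, with cells grown in 96-well plates and compounds tested at five concentrations. GI50 is the concentration that inhibits growth by half.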 Calls of active or inactive are those of the source. Rule as the data show it: active = GI50 up to about 1.1 µM and inactive = higher.

How the values were obtained:
Test in all cases: inhibition of tumour cell growth, NCI panel, 48 h
786-0 = tested on: 786-0
A498 = tested on: A498
A549 = tested on: A549
ACHN = tested on: ACHN
BT-549 = tested on: BT-549
CAKI-1 = tested on: CAKI-1
CCRF-CEM = tested on: CCRF-CEM
COLO 205 = tested on: COLO 205
DU-145 = tested on: DU-145
EKVX = tested on: EKVX
HCC 2998 = tested on: HCC 2998
HCT-116 = tested on: HCT-116
HCT-15 = tested on: HCT-15
HOP-62 = tested on: HOP-62
HOP-92 = tested on: HOP-92
HT-29 = tested on: HT-29
Hs-578T = tested on: Hs-578T
IGROV-1 = tested on: IGROV-1
K562 = tested on: K562
KM12 = tested on: KM12
LOX IMVI = tested on: LOX IMVI
M14 = tested on: M14
MCF7 = tested on: MCF7
MDA-MB-231 = tested on: MDA-MB-231
MDA-MB-435 = tested on: MDA-MB-435
MDA-N = tested on: MDA-N
MOLT-4 = tested on: MOLT-4
NCI-H226 = tested on: NCI-H226
NCI-H23 = tested on: NCI-H23
NCI-H460 = tested on: NCI-H460
NCI-H522 = tested on: NCI-H522
NCI/ADR-RES = tested on: NCI/ADR-RES
OVCAR-3 = tested on: OVCAR-3
OVCAR-4 = tested on: OVCAR-4
OVCAR-5 = tested on: OVCAR-5
OVCAR-8 = tested on: OVCAR-8
PC-3 = tested on: PC-3
RPMI-8226 = tested on: RPMI-8226
RXF 393 = tested on: RXF 393
SF-268 = tested on: SF-268
SF-295 = tested on: SF-295
SF-539 = tested on: SF-539
SK-MEL-28 = tested on: SK-MEL-28
SK-MEL-2 = tested on: SK-MEL-2
SK-MEL-5 = tested on: SK-MEL-5
SK-OV-3 = tested on: SK-OV-3
SN12C = tested on: SN12C
SNB-19 = tested on: SNB-19
SNB-75 = tested on: SNB-75
SR = tested on: SR
SW-620 = tested on: SW-620
T47D = tested on: T47D
TK-10 = tested on: TK-10
U-251 = tested on: U-251
UACC-257 = tested on: UACC-257
UACC-62 = tested on: UACC-62
UO-31 = tested on: UO-31
Malme-3M = tested on: Malme-3M

## c1ccc(C(=NNc2nc3ccccc3[nH]2)c2ccccn2)nc1
786-0
  GI50: 0.123 µM (active)
A498
  GI50: 0.36 µM (active)
A549
  GI50: 0.3 µM (active)
ACHN
  GI50: 0.114 µM (active)
BT-549
  GI50: 0.48 µM (active)
CAKI-1
  GI50: 0.102 µM (active)
CCRF-CEM
  GI50: 0.0313 µM (active)
COLO 205
  GI50: 0.0257 µM (active)
DU-145
  GI50: 0.268 µM (active)
EKVX
  GI50: 0.929 µM (active)
HCC 2998
  GI50: 15 µM (inactive)
HCT-116
  GI50: 0.0832 µM (active)
HCT-15
  GI50: 0.115 µM
HOP-62
  GI50: 0.207 µM (active)
HOP-92
  GI50: 0.0232 µM (active)
HT-29
  GI50: 0.0221 µM (active)
Hs-578T
  GI50: 7.53 µM (inactive)
IGROV-1
  GI50: 0.112 µM (active)
K562
  GI50: 0.172 µM (active)
KM12
  GI50: 0.298 µM (active)
LOX IMVI
  GI50: 0.172 µM (active)
M14
  GI50: 0.126 µM (active)
MCF7
  GI50: 0.143 µM (active)
MDA-MB-231
  GI50: 0.166 µM (active)
MDA-MB-435
  GI50: 0.348 µM (active)
MDA-N
  GI50: 0.394 µM (active)
MOLT-4
  GI50: 0.015 µM (active)
NCI-H226
  GI50: 0.0625 µM (active)
NCI-H23
  GI50: 0.24 µM (active)
NCI-H460
  GI50: 0.134 µM (active)
NCI-H522
  GI50: 0.0288 µM (active)
NCI/ADR-RES
  GI50: 0.115 µM (active)
OVCAR-3
  GI50: 0.0393 µM (active)
OVCAR-4
  GI50: 0.0592 µM (active)
OVCAR-5
  GI50: 1.74 µM (inactive)
OVCAR-8
  GI50: 0.0993 µM (active)
PC-3
  GI50: 0.224 µM (active)
RPMI-8226
  GI50: 0.129 µM (active)
RXF 393
  GI50: 0.197 µM (active)
SF-268
  GI50: 0.13 µM (active)
SF-295
  GI50: 2.13 µM (inactive)
SF-539
  GI50: 0.177 µM (active)
SK-MEL-28
  GI50: 0.185 µM (active)
SK-MEL-2
  GI50: 12.9 µM (inactive)
SK-MEL-5
  GI50: 0.159 µM (active)
SK-OV-3
  GI50: 0.103 µM (active)
SN12C
  GI50: 0.128 µM (active)
SNB-19
  GI50: 0.33 µM (active)
SNB-75
  GI50: 0.218 µM (active)
SR
  GI50: 0.0371 µM (active)
SW-620
  GI50: 0.0698 µM (active)
T47D
  GI50: 0.0131 µM (active)
TK-10
  GI50: 0.121 µM (active)
U-251
  GI50: 0.171 µM (active)
UACC-257
  GI50: 0.145 µM (active)
UACC-62
  GI50: 0.222 µM (active)
UO-31
  GI50: 0.0847 µM (active)

## CCCN(CCC)C1CCc2c(ccc3cc[nH]c23)C1 (configuration not stated)
786-0
  GI50: > 100 µM (inactive)
A498
  GI50: > 100 µM (inactive)
A549
  GI50: > 100 µM (inactive)
ACHN
  GI50: > 100 µM (inactive)
BT-549
  GI50: > 100 µM (inactive)
CAKI-1
  GI50: > 100 µM (inactive)
CCRF-CEM
  GI50: 26.3 µM (inactive)
COLO 205
  GI50: 29.8 µM (inactive)
DU-145
  GI50: > 100 µM (inactive)
EKVX
  GI50: > 100 µM (inactive)
HCC 2998
  GI50: 23 µM (inactive)
HCT-116
  GI50: 66.8 µM (inactive)
HCT-15
  GI50: 48.1 µM
HOP-62
  GI50: > 100 µM (inactive)
HOP-92
  GI50: 27.7 µM (inactive)
HT-29
  GI50: 33.5 µM (inactive)
Hs-578T
  GI50: > 100 µM (inactive)
IGROV-1
  GI50: 62.7 µM (inactive)
K562
  GI50: 30.5 µM (inactive)
KM12
  GI50: 60.4 µM (inactive)
M14
  GI50: 17.7 µM (inactive)
MCF7
  GI50: 77.3 µM (inactive)
MDA-MB-231
  GI50: 41.3 µM (inactive)
MDA-MB-435
  GI50: 89.3 µM (inactive)
MDA-N
  GI50: > 100 µM (inactive)
MOLT-4
  GI50: 25.2 µM (inactive)
Malme-3M
  GI50: 58.1 µM (inactive)
NCI-H226
  GI50: > 100 µM (inactive)
NCI-H23
  GI50: > 100 µM (inactive)
NCI-H460
  GI50: 72.3 µM (inactive)
NCI-H522
  GI50: > 100 µM (inactive)
NCI/ADR-RES
  GI50: > 100 µM (inactive)
OVCAR-3
  GI50: 61.4 µM (inactive)
OVCAR-4
  GI50: > 100 µM (inactive)
OVCAR-5
  GI50: > 100 µM (inactive)
OVCAR-8
  GI50: > 100 µM (inactive)
PC-3
  GI50: 35 µM (inactive)
RPMI-8226
  GI50: 41 µM (inactive)
RXF 393
  GI50: > 100 µM (inactive)
SF-268
  GI50: 94.2 µM (inactive)
SF-295
  GI50: > 100 µM (inactive)
SF-539
  GI50: > 100 µM (inactive)
SK-MEL-28
  GI50: 31.9 µM (inactive)
SK-MEL-2
  GI50: > 100 µM (inactive)
SK-MEL-5
  GI50: 20.7 µM (inactive)
SK-OV-3
  GI50: > 100 µM (inactive)
SN12C
  GI50: > 100 µM (inactive)
SNB-19
  GI50: > 100 µM (inactive)
SNB-75
  GI50: 25.6 µM (inactive)
SR
  GI50: 22.9 µM (inactive)
SW-620
  GI50: > 100 µM (inactive)
T47D
  GI50: > 100 µM (inactive)
TK-10
  GI50: > 100 µM (inactive)
U-251
  GI50: > 100 µM (inactive)
UACC-257
  GI50: 26.7 µM (inactive)
UACC-62
  GI50: 50.9 µM (inactive)
UO-31
  GI50: 49 µM (inactive)

## CNc1ncnc2c1cnn2COCC(O)CO (configuration not stated)
786-0
  GI50: > 100 µM (inactive)
A498
  GI50: > 100 µM (inactive)
A549
  GI50: > 100 µM (inactive)
ACHN
  GI50: > 100 µM (inactive)
BT-549
  GI50: > 100 µM (inactive)
CAKI-1
  GI50: > 100 µM (inactive)
CCRF-CEM
  GI50: > 100 µM (inactive)
COLO 205
  GI50: > 100 µM (inactive)
DU-145
  GI50: > 100 µM (inactive)
EKVX
  GI50: > 100 µM (inactive)
HCC 2998
  GI50: > 100 µM (inactive)
HCT-116
  GI50: > 100 µM (inactive)
HCT-15
  GI50: > 100 µM
HOP-62
  GI50: > 100 µM (inactive)
HOP-92
  GI50: > 100 µM (inactive)
HT-29
  GI50: > 100 µM (inactive)
Hs-578T
  GI50: > 100 µM (inactive)
IGROV-1
  GI50: > 100 µM (inactive)
K562
  GI50: > 100 µM (inactive)
KM12
  GI50: > 100 µM (inactive)
LOX IMVI
  GI50: > 100 µM (inactive)
M14
  GI50: > 100 µM (inactive)
MCF7
  GI50: > 100 µM (inactive)
MDA-MB-231
  GI50: > 100 µM (inactive)
MDA-MB-435
  GI50: > 100 µM (inactive)
MDA-N
  GI50: > 100 µM (inactive)
MOLT-4
  GI50: > 100 µM (inactive)
Malme-3M
  GI50: > 100 µM (inactive)
NCI-H226
  GI50: > 100 µM (inactive)
NCI-H23
  GI50: > 100 µM (inactive)
NCI-H460
  GI50: > 100 µM (inactive)
NCI-H522
  GI50: > 100 µM (inactive)
NCI/ADR-RES
  GI50: > 100 µM (inactive)
OVCAR-3
  GI50: > 100 µM (inactive)
OVCAR-4
  GI50: > 100 µM (inactive)
OVCAR-5
  GI50: > 100 µM (inactive)
OVCAR-8
  GI50: > 100 µM (inactive)
PC-3
  GI50: > 100 µM (inactive)
RPMI-8226
  GI50: > 100 µM (inactive)
RXF 393
  GI50: > 100 µM (inactive)
SF-268
  GI50: > 100 µM (inactive)
SF-295
  GI50: > 100 µM (inactive)
SF-539
  GI50: > 100 µM (inactive)
SK-MEL-28
  GI50: > 100 µM (inactive)
SK-MEL-2
  GI50: > 100 µM (inactive)
SK-MEL-5
  GI50: > 100 µM (inactive)
SK-OV-3
  GI50: > 100 µM (inactive)
SN12C
  GI50: > 100 µM (inactive)
SNB-19
  GI50: > 100 µM (inactive)
SNB-75
  GI50: > 100 µM (inactive)
SR
  GI50: > 100 µM (inactive)
SW-620
  GI50: > 100 µM (inactive)
T47D
  GI50: > 100 µM (inactive)
TK-10
  GI50: > 100 µM (inactive)
U-251
  GI50: > 100 µM (inactive)
UACC-257
  GI50: > 100 µM (inactive)
UACC-62
  GI50: > 100 µM (inactive)
UO-31
  GI50: > 100 µM (inactive)
